Data reported in ChEMBL document CHEMBL5625224, “Identification of [1,2,4]Triazolo[4,3-a]pyrazine PARP1 inhibitors with overcome acquired resistance activities” (Eur J Med Chem, 2023).
Active and inactive are the calls of the source. No cut-off for these calls is given here.

Key:
[1] = biological target: Poly [ADP-ribose] polymerase 1 (Homo sapiens, UniProt P09874); test: Inhibition of PARP1 (unknown origin) incubated for 1 hr by ELISA analysis
MDA-MB-436 = test: Antiproliferative activity against human MDA-MB-436 BRCA1-/- cells assessed as inhibition of cell growth incubated for 7 days by CCK-8 assay; assay type: functional, cell-based; details: MDA-MB-436, 168 h
CAPAN-1 [2] = test: Antiproliferative activity against human CAPAN-1 BRCA2-/- cells assessed as inhibition of cell growth incubated for 7 days by CCK-8 assay; assay type: functional, cell-based; details: CAPAN-1, 168 h
[3] = test system: Olaparib-resistant CAPAN-1; test: Antiproliferative activity against human Olaparib-resistant CAPAN-1 cells assessed as inhibition of cell growth incubated for 7 days by CCK-8 assay; assay type: functional, cell-based; details: Olaparib-resistant CAPAN-1, 168 h
[4] = Antiproliferative activity against human Talazoparib-resistant CAPAN-1 cells assessed as inhibition of cell growth incubated for 7 days by CCK-8 assay; assay type: functional, cell-based; details: CAPAN-1, 168 h
[5] = Antiproliferative activity against human Simmiparib-resistant CAPAN-1 cells assessed as inhibition of cell growth incubated for 7 days by CCK-8 assay; assay type: functional, cell-based; details: CAPAN-1, 168 h
[6] = biological target: Voltage-gated inwardly rectifying potassium channel KCNH2 (Homo sapiens, UniProt Q12809); test: Inhibition of hERG; assay type: toxicity
CAPAN-1 [7] = test: Induction of DNA double strand breaks in human CAPAN-1 cells assessed as gamma-H2AX foci formation at 0.1 to 1 uM incubated for 24 hrs by DAPI staining based confocal microscopic analysis; assay type: functional, cell-based; details: dose 0.1-1 µM
CAPAN-1 [8] = test: Induction of DNA double strand breaks in human CAPAN-1 cells assessed as effect on RPA32 phosphorylation at 0.1 to 1 uM incubated for 24 hrs by DAPI staining based confocal microscopic analysis; assay type: functional, cell-based; details: dose 0.1-1 µM
[9] = test system: Olaparib-resistant CAPAN-1; test: Induction of DNA double strand breaks in human Olaparib-resistant CAPAN-1 cells assessed as gamma-H2AX foci formation at 0.1 to 1 uM incubated for 24 hrs by DAPI staining based confocal microscopic analysis; assay type: functional, cell-based; details: dose 0.1-1 µM
[10] = test system: Olaparib-resistant CAPAN-1; test: Induction of DNA double strand breaks in human Olaparib-resistant CAPAN-1 cells assessed as effect on RPA32 phosphorylation at 0.1 to 1 uM incubated for 24 hrs by DAPI staining based confocal microscopic analysis; assay type: functional, cell-based; details: dose 0.1-1 µM
CAPAN-1 [11] = test: Induction of DNA double strand breaks in human CAPAN-1 cells assessed as increase in gamma-H2AX level at 0.1 to 1 uM incubated for 24 hrs by Western blot analysis; assay type: functional, cell-based; details: dose 0.1-1 µM
CAPAN-1 [12] = test: Induction of DNA double strand breaks in human CAPAN-1 cells assessed as increase in RPA32 phosphorylation at 0.1 to 1 uM incubated for 24 hrs by Western blot analysis; assay type: functional, cell-based; details: dose 0.1-1 µM
CAPAN-1 [13] = test: Induction of DNA double strand breaks in human CAPAN-1 cells assessed as increase in Chk1 phosphorylation at 0.1 to 1 uM incubated for 24 hrs by Western blot analysis; assay type: functional, cell-based; details: dose 0.1-1 µM
CAPAN-1 [14] = test: Induction of DNA double strand breaks in human CAPAN-1 cells assessed as increase in p-ATM foci formation at 0.1 to 1 uM incubated for 24 hrs by DAPI staining based confocal microscopic analysis; assay type: functional, cell-based; details: dose 0.1-1 µM
[15] = test system: Olaparib-resistant CAPAN-1; test: Induction of DNA double strand breaks in Olaparib-resistant human CAPAN-1 cells assessed as increase in p-ATM foci formation at 0.1 to 1 uM incubated for 24 hrs by DAPI staining based confocal microscopic analysis; assay type: functional, cell-based; details: dose 0.1-1 µM
CAPAN-1 [16] = test: Induction of cell cycle arrest in human CAPAN-1 cells assessed as accumulation of cell at G2/M phase at 0.1 uM incubated for 24 hrs by […] staining based flow cytometry analysis; assay type: functional
CAPAN-1 [17] = test: Induction of cell cycle arrest in human CAPAN-1 cells assessed as accumulation of cell at S phase at 0.5 to 1 uM incubated for 24 hrs by […] staining based flow cytometry analysis; assay type: functional; details: dose 0.5-1 µM
[18] = test system: Olaparib-resistant CAPAN-1; test: Induction of cell cycle arrest in human Olaparib-resistant CAPAN-1 cells assessed as accumulation of cell at S phase at 0.5 to 1 uM incubated for 24 hrs by […] staining based flow cytometry analysis; assay type: functional; details: dose 0.5-1 µM
CAPAN-1 [19] = test: Induction of apoptosis in human CAPAN-1 cells assessed as early apoptotic cells at 0.1 uM incubated for 48 hrs by Annexin-V/PI staining based flow cytometry analysis (reference value: 10.1%); assay type: functional
CAPAN-1 [20] = test: Induction of apoptosis in human CAPAN-1 cells assessed as late apoptotic cells at 0.1 uM incubated for 48 hrs by Annexin-V/PI staining based flow cytometry analysis (reference value: 4.95%); assay type: functional
CAPAN-1 [21] = test: Induction of apoptosis in human CAPAN-1 cells assessed as early apoptotic cells at 0.5 uM incubated for 48 hrs by Annexin-V/PI staining based flow cytometry analysis (reference value: 10.1%); assay type: functional
CAPAN-1 [22] = test: Induction of apoptosis in human CAPAN-1 cells assessed as late apoptotic cells at 0.5 uM incubated for 48 hrs by Annexin-V/PI staining based flow cytometry analysis (reference value: 4.95%); assay type: functional
CAPAN-1 [23] = test: Induction of apoptosis in human CAPAN-1 cells assessed as early apoptotic cells at 1 uM incubated for 48 hrs by Annexin-V/PI staining based flow cytometry analysis (reference value: 10.1%); assay type: functional
CAPAN-1 [24] = test: Induction of apoptosis in human CAPAN-1 cells assessed as late apoptotic cells at 1 uM incubated for 48 hrs by Annexin-V/PI staining based flow cytometry analysis (reference value: 4.95%); assay type: functional
[25] = test system: Olaparib-resistant CAPAN-1; test: Induction of apoptosis in human Olaparib-resistant CAPAN-1 cells assessed as early apoptotic cells at 0.1 uM incubated for 48 hrs by Annexin-V/PI staining based flow cytometry analysis (reference value: 8.50%); assay type: functional
[26] = test system: Olaparib-resistant CAPAN-1; test: Induction of apoptosis in human Olaparib-resistant CAPAN-1 cells assessed as late apoptotic cells at 0.1 uM incubated for 48 hrs by Annexin-V/PI staining based flow cytometry analysis (reference value: 3.67%); assay type: functional
[27] = test system: Olaparib-resistant CAPAN-1; test: Induction of apoptosis in human Olaparib-resistant CAPAN-1 cells assessed as early apoptotic cells at 0.5 uM incubated for 48 hrs by Annexin-V/PI staining based flow cytometry analysis (reference value: 8.50%); assay type: functional
[28] = test system: Olaparib-resistant CAPAN-1; test: Induction of apoptosis in human Olaparib-resistant CAPAN-1 cells assessed as late apoptotic cells at 0.5 uM incubated for 48 hrs by Annexin-V/PI staining based flow cytometry analysis (reference value: 3.67%); assay type: functional
[29] = test system: Olaparib-resistant CAPAN-1; test: Induction of apoptosis in human Olaparib-resistant CAPAN-1 cells assessed as early apoptotic cells at 1 uM incubated for 48 hrs by Annexin-V/PI staining based flow cytometry analysis (reference value: 8.50%); assay type: functional
[30] = test system: Olaparib-resistant CAPAN-1; test: Induction of apoptosis in human Olaparib-resistant CAPAN-1 cells assessed as late apoptotic cells at 1 uM incubated for 48 hrs by Annexin-V/PI staining based flow cytometry analysis (reference value: 3.67%); assay type: functional

Sequence of Voltage-gated inwardly rectifying potassium channel KCNH2 (Q12809 whole entry): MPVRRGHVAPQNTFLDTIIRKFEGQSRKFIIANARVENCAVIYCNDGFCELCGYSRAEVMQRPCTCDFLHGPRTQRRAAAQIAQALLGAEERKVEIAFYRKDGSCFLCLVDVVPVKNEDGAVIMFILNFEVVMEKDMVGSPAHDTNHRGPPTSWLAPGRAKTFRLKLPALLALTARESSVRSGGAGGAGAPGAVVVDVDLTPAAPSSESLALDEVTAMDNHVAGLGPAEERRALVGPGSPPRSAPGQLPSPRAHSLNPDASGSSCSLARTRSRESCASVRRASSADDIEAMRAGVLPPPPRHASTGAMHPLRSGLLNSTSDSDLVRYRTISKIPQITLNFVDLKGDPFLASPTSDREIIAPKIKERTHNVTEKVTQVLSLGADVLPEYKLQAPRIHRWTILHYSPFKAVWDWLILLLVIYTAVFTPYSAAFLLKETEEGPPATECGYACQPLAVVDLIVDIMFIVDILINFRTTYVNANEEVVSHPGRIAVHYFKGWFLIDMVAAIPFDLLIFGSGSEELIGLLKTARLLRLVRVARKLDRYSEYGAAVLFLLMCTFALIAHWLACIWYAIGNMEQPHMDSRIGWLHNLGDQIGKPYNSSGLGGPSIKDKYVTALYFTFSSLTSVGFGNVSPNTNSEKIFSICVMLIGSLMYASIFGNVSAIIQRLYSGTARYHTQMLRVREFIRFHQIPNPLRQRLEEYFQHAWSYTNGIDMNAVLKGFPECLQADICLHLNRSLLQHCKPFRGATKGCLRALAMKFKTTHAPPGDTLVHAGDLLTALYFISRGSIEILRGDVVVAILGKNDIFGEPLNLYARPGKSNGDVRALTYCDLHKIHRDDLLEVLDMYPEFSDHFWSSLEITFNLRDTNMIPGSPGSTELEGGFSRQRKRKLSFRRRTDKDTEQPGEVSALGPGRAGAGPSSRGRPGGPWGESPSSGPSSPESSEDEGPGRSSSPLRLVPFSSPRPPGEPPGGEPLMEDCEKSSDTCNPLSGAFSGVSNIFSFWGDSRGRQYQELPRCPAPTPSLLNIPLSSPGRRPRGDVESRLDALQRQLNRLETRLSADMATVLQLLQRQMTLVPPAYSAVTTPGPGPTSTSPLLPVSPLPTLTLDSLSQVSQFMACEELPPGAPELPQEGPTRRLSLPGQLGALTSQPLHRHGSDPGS
Sequence of Poly [ADP-ribose] polymerase 1 (P09874 whole entry): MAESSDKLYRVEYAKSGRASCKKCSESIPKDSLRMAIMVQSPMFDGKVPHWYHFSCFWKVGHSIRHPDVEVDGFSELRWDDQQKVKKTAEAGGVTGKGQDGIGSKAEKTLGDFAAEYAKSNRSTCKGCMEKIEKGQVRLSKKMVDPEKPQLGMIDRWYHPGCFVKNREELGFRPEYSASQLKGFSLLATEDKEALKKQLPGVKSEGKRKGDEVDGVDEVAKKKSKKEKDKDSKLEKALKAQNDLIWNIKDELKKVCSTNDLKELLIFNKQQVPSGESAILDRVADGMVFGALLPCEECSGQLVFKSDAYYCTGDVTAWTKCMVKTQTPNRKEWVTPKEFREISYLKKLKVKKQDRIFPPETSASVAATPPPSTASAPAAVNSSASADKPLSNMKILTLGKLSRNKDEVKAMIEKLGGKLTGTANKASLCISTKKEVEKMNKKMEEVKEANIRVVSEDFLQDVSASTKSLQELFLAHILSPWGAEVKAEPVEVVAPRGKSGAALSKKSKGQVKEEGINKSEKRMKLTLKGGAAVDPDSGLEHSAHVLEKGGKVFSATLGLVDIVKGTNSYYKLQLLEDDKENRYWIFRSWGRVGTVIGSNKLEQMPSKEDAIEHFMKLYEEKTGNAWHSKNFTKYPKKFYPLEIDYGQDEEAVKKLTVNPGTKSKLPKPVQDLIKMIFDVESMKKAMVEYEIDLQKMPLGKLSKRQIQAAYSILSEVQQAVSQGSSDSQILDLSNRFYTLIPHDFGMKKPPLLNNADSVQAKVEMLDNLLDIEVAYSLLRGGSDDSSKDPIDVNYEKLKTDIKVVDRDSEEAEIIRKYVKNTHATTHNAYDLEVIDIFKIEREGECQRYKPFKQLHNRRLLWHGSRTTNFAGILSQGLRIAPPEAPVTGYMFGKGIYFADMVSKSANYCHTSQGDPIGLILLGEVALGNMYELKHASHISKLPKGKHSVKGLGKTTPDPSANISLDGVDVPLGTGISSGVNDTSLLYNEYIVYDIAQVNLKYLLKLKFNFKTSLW

Question: What does the source list for `COc1cccc(-c2nnc3n2C(C)CN(C(=O)c2cc(Cc4n[nH]c(=O)c5ccccc45)ccc2F)C3)n1` (stereo unspecified)?
Answer: IC50 [1]: 0.6 nM; IC50 (MDA-MB-436): < 0.3 nM; IC50 (CAPAN-1 [2]): < 0.3 nM; IC50 [3]: 0.3 nM; IC50 [4]: < 0.3 nM; IC50 [5]: 0.3 nM; IC50 [6]: 17500 nM; Activity (CAPAN-1 [7]): Active; Activity (CAPAN-1 [8]): Active; Activity [9]: Active; Activity [10]: Active; Activity (CAPAN-1 [11]): Active; Activity (CAPAN-1 [12]): Active; Activity (CAPAN-1 [13]): Active; Activity (CAPAN-1 [14]): Active; Activity [15]: Active; Activity (CAPAN-1 [16]): Active; Activity (CAPAN-1 [17]): Active; Activity [18]: Active; Activity (CAPAN-1 [19]): 37.9%; Activity (CAPAN-1 [20]): 17.7%; Activity (CAPAN-1 [21]): 40.7%; Activity (CAPAN-1 [22]): 42%; Activity (CAPAN-1 [23]): 41%; Activity (CAPAN-1 [24]): 43.9%; Activity [25]: 17.6%; Activity [26]: 4.6%; Activity [27]: 39.1%; Activity [28]: 29%; Activity [29]: 36.6%; Activity [30]: 30.7%
